These results are taken from patent publication US12404285B2, “KRAS G12D proteolysis targeting chimeras” (PAQ Therapeutics Inc., priority 2022, dated 2025).

For the experiment, the target named is T1, KRAS (G12D)-HiBit in AsPc-1-KRAS (G12D)-HiBit-KI cell (Homo sapiens, UniProt P01116, G12D).
T1 construct: host or cells: AsPc-1-KRAS (G12D)-HiBit-KI cells (knock-in line)
T1 sequence (P01116 1-188 isoform P01116-2 G12D): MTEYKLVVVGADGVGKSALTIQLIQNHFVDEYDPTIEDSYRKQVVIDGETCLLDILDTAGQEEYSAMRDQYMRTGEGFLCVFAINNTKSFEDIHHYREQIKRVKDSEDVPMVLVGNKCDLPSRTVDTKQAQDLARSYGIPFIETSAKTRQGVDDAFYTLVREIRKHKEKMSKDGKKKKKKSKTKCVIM
Briefly: G12D HiBit assay. The class given is cell-based. As to conditions: 24 hours compound treatment, absolute DC50, read-out: Average PHA DC50. In outline:
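Degradation of endogenous HiBiT-tagged KRAS G12D in AsPc-1 knock-in cells read after 24 h compound exposure (0.015-300 nM, 3-fold steps) by Nano-Glo HiBiT lytic luminescence. Signal normalised to DMSO-only cells; absolute DC50 derived by curve fitting.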
As for `C#Cc1c(F)ccc2cccc(-c3ncc4c(N5CC6CCC(C5)N6)nc(OC[C@@]56CCCN5[C@H](COC(=O)N5CCC(CCN7CCN(Cc8ccc9c(c8)n(C)c(=O)n9C8CCC(=O)NC8=O)CC7)CC5)CC6)nc4c3F)c12` (stereo partly drawn) [Compound 87, [(3S,8S)-8-[[4-(3,8-Diazabicyclo[3.2.1]octan-3-yl)-7-(8-ethynyl-7-fluoro-1-naphthyl)-8-fluoro-pyrido[4,3-d]pyrimidin-2-yl]oxymethyl]-1,2,3,5,6,7-hexahydropyrrolizin-3-yl]methyl 4-[2-[4-[[1-(2,6-dioxo-3-piperidyl)-3-methyl-2-oxo-benzimidazol-5-yl]methyl]piperazin-1-yl]ethyl]piperidine-1-carboxylate], the DC50 was below 100 nM.

For `C#Cc1c(F)ccc2cccc(-c3ncc4c(N5CC6CCC(C5)N6)nc(OC[C@@]56CCCN5[C@H](COC(=O)N5CCN(CCC7CCN(Cc8ccc9c(c8)n(C)c(=O)n9C8CCC(=O)NC8=O)CC7)CC5)CC6)nc4c3F)c12` (stereo partly drawn) [Compound 88, [(3S,8S)-8-[[4-(3,8-Diazabicyclo[3.2.1]octan-3-yl)-7-(8-ethynyl-7-fluoro-1-naphthyl)-8-fluoro-pyrido[4,3-d]pyrimidin-2-yl]oxymethyl]-1,2,3,5,6,7-hexahydropyrrolizin-3-yl]methyl 4-[2-[1-[[1-(2,6-dioxo-3-piperidyl)-3-methyl-2-oxo-benzimidazol-5-yl]methyl]-4-piperidyl]ethyl]piperazine-1-carboxylate], the DC50 was below 100 nM.

Turning to `C#Cc1c(F)ccc2cccc(-c3ncc4c(N5CC6CCC(C5)N6)nc(OC[C@@]56CCCN5[C@H](COC(=O)N5CC(OC7CCN(Cc8ccc9c(c8)n(C)c(=O)n9C8CCC(=O)NC8=O)CC7)C5)CC6)nc4c3F)c12` (stereo partly drawn) [Compound 89, [(3S,8S)-8-[[4-(3,8-Diazabicyclo[3.2.1]octan-3-yl)-7-(8-ethynyl-7-fluoro-1-naphthyl)-8-fluoro-pyrido[4,3-d]pyrimidin-2-yl]oxymethyl]-1,2,3,5,6,7-hexahydropyrrolizin-3-yl]methyl 3-[[1-[[1-(2,6-dioxo-3-piperidyl)-3-methyl-2-oxo-benzimidazol-5-yl]methyl]-4-piperidyl]oxy]azetidine-1-carboxylate], the DC50 is below 100 nM.

On to `C#Cc1c(F)ccc2cccc(-c3ncc4c(N5C[C@H]6CC[C@@H](C5)N6)nc(OC[C@@]56CCCN5[C@H](COC(=O)N5CCC(CC7CCN(c8ccc9c(c8)n(C)c(=O)n9C8CCC(=O)NC8=O)CC7)CC5)CC6)nc4c3F)c12` (stereo partly drawn) [Compound 90, ((3S,7aS)-7a-(((4-((1R,5S)-3,8-Diazabicyclo[3.2.1]octan-3-yl)-7-(8-ethynyl-7-fluoronaphthalen-1-yl)-8-fluoropyrido[4,3-d]pyrimidin-2-yl)oxy)methyl)hexahydro-1H-pyrrolizin-3-yl)methyl4-((1-(1-(2,6-dioxopiperidin-3-yl)-3-methyl-2-oxo-2,3-dihydro-1H-benzo[d]imidazol-5-yl)piperidin-4-yl)methyl)piperidine-1-carboxylate], for which the DC50 is below 100 nM.

As for `C#Cc1c(F)ccc2cccc(-c3ncc4c(N5CC6CCC(C5)N6)nc(OC[C@@]56CCCN5[C@H](COC(=O)N5CCC(OCC#CC#Cc7ccc8c(c7)n(C)c(=O)n8C7CCC(=O)NC7=O)CC5)CC6)nc4c3F)c12` (stereo partly drawn) [Compound 92, [(3S,8S)-8-[[4-(3,8-Diazabicyclo[3.2.1]octan-3-yl)-7-(8-ethynyl-7-fluoro-1-naphthyl)-8-fluoro-pyrido[4,3-d]pyrimidin-2-yl]oxymethyl]-1,2,3,5,6,7-hexahydropyrrolizin-3-yl]methyl 4-[5-[1-(2,6-dioxo-3-piperidyl)-3-methyl-2-oxo-benzimidazol-5-yl]penta-2,4-diynoxy]piperidine-1-carboxylate], the DC50 is below 100 nM.

As for `C#Cc1c(F)ccc2cccc(-c3ncc4c(N5CC6CCC(C5)N6)nc(OC[C@@]56CCCN5[C@H](COC(=O)N5CCC(OCC#CC#Cc7cccc8c7n(C)c(=O)n8C7CCC(=O)NC7=O)CC5)CC6)nc4c3F)c12` (stereo partly drawn) [Compound 93, [(3S,8S)-8-[[4-(3,8-Diazabicyclo[3.2.1]octan-3-yl)-7-(8-ethynyl-7-fluoro-1-naphthyl)-8-fluoro-pyrido[4,3-d]pyrimidin-2-yl]oxymethyl]-1,2,3,5,6,7-hexahydropyrrolizin-3-yl]methyl4-[5-[1-(2,6-dioxo-3-piperidyl)-3-methyl-2-oxo-benzimidazol-4-yl]penta-2,4-diynoxy]piperidine-1-carboxylate], the DC50 was below 100 nM.

Regarding `C#Cc1c(F)ccc2cccc(-c3ncc4c(N5CC6CCC(C5)N6)nc(OC[C@@]56CCCN5[C@H](COC(=O)N5CCC(Cn7cc(-c8ccc9c(c8)n(C)c(=O)n9C8CCC(=O)NC8=O)nn7)CC5)CC6)nc4c3F)c12` (stereo partly drawn) [Compound 94, [(3S,8S)-8-[[4-(3,8-Diazabicyclo[3.2.1]octan-3-yl)-7-(8-ethynyl-7-fluoro-1-naphthyl)-8-fluoro-pyrido[4,3-d]pyrimidin-2-yl]oxymethyl]-1,2,3,5,6,7-hexahydropyrrolizin-3-yl]methyl 4-[[4-[1-(2,6-dioxo-3-piperidyl)-3-methyl-2-oxo-benzimidazol-5-yl]triazol-1-yl]methyl]piperidine-1-carboxylate], the DC50 was at least 300 nM.

Turning to `C#Cc1c(F)ccc2cccc(-c3ncc4c(N5CC6CCC(C5)N6)nc(OC[C@@]56CCCN5[C@H](COC(=O)N5CCC(CCn7cc(-c8ccc9c(c8)n(C)c(=O)n9C8CCC(=O)NC8=O)nn7)CC5)CC6)nc4c3F)c12` (stereo partly drawn) [Compound 95, [(3S,8S)-8-[[4-(3,8-Diazabicyclo[3.2.1]octan-3-yl)-7-(8-ethynyl-7-fluoro-1-naphthyl)-8-fluoro-pyrido[4,3-d]pyrimidin-2-yl]oxymethyl]-1,2,3,5,6,7-hexahydropyrrolizin-3-yl]methyl 4-[2-[4-[1-(2,6-dioxo-3-piperidyl)-3-methyl-2-oxo-benzimidazol-5-yl]triazol-1-yl]ethyl]piperidine-1-carboxylate], the DC50 is at least 300 nM.

With `C#Cc1c(F)ccc2cccc(-c3ncc4c(N5CC6CCC(C5)N6)nc(OC[C@@]56CCCN5[C@H](COC(=O)N5CCC(Cn7cc(-c8cccc9c8n(C)c(=O)n9C8CCC(=O)NC8=O)nn7)CC5)CC6)nc4c3F)c12` (stereo partly drawn) [Compound 96, [(3S,8S)-8-[[4-(3,8-Diazabicyclo[3.2.1]octan-3-yl)-7-(8-ethynyl-7-fluoro-1-naphthyl)-8-fluoro-pyrido[4,3-d]pyrimidin-2-yl]oxymethyl]-1,2,3,5,6,7-hexahydropyrrolizin-3-yl]methyl 4-[[4-[1-(2,6-dioxo-3-piperidyl)-3-methyl-2-oxo-benzimidazol-4-yl]triazol-1-yl]methyl]piperidine-1-carboxylate], the DC50 was at least 300 nM.

Take `C#Cc1c(F)ccc2cccc(-c3ncc4c(N5CC6CCC(C5)N6)nc(OC[C@@]56CCCN5[C@H](COC(=O)N5CCC(CCn7cc(-c8cccc9c8n(C)c(=O)n9C8CCC(=O)NC8=O)nn7)CC5)CC6)nc4c3F)c12` (stereo partly drawn) [Compound 97, [(3S,8S)-8-[[4-(3,8-Diazabicyclo[3.2.1]octan-3-yl)-7-(8-ethynyl-7-fluoro-1-naphthyl)-8-fluoro-pyrido[4,3-d]pyrimidin-2-yl]oxymethyl]-1,2,3,5,6,7-hexahydropyrrolizin-3-yl]methyl4-[2-[4-[1-(2,6-dioxo-3-piperidyl)-3-methyl-2-oxo-benzimidazol-4-yl]triazol-1-yl]ethyl]piperidine-1-carboxylate]: the DC50 was below 100 nM.

Consider `C#Cc1c(F)ccc2cccc(-c3ncc4c(N5CC6CCC(C5)N6)nc(OC[C@@]56CCCN5[C@H](COC(=O)N5CCC(OC7CCN(c8ccc9c(c8)n(C)c(=O)n9C8CCC(=O)NC8=O)CC7)CC5)CC6)nc4c3F)c12` (stereo partly drawn) [Compound 98, [(3S,8S)-8-[[4-(3,8-Diazabicyclo[3.2.1]octan-3-yl)-7-(8-ethynyl-7-fluoro-1-naphthyl)-8-fluoro-pyrido[4,3-d]pyrimidin-2-yl]oxymethyl]-1,2,3,5,6,7-hexahydropyrrolizin-3-yl]methyl 4-[[1-[1-(2,6-dioxo-3-piperidyl)-3-methyl-2-oxo-benzimidazol-5-yl]-4-piperidyl]oxy]piperidine-1-carboxylate], for which the DC50 is below 100 nM.

Regarding `C#Cc1c(F)ccc2cccc(-c3ncc4c(N5CC6CCC(C5)N6)nc(OC[C@@]56CCCN5[C@H](COC(=O)N5CCC(OC7CCN(c8cccc9c8n(C)c(=O)n9C8CCC(=O)NC8=O)CC7)CC5)CC6)nc4c3F)c12` (stereo partly drawn) [Compound 99, [(3S,8S)-8-[[4-(3,8-Diazabicyclo[3.2.1]octan-3-yl)-7-(8-ethynyl-7-fluoro-1-naphthyl)-8-fluoro-pyrido[4,3-d]pyrimidin-2-yl]oxymethyl]-1,2,3,5,6,7-hexahydropyrrolizin-3-yl]methyl 4-[[1-[1-(2,6-dioxo-3-piperidyl)-3-methyl-2-oxo-benzimidazol-4-yl]-4-piperidyl]oxy]piperidine-1-carboxylate], the DC50 is below 100 nM.

For `C#Cc1c(F)ccc2cccc(-c3ncc4c(N5CC6CCC(C5)N6)nc(OC[C@@]56CCCN5[C@H](COC(=O)N5CCC(CN7CC(Oc8cccc9c8n(C)c(=O)n9C8CCC(=O)NC8=O)C7)CC5)CC6)nc4c3F)c12` (stereo partly drawn) [Compound 100, [(3S,8S)-8-[[4-(3,8-diazabicyclo[3.2.1]octan-3-yl)-7-(8-ethynyl-7-fluoro-1-naphthyl)-8-fluoro-pyrido[4,3-d]pyrimidin-2-yl]oxymethyl]-1,2,3,5,6,7-hexahydropyrrolizin-3-yl]methyl 4-[[3-[1-(2,6-dioxo-3-piperidyl)-3-methyl-2-oxo-benzimidazol-4-yl]oxyazetidin-1-yl]methyl]piperidine-1-carboxylate], the DC50 is below 100 nM.
